Assay results from patent US20190233884A1 (University of Southern California, priority 2016, published 2019).

System: patients with refractory metastatic colorectal cancer (mCRC)
Assay: PFS, OS and disease control in the training (evaluation) cohort of refractory mCRC patients receiving TAS-102 (n=52, Japan), by baseline characteristics, SNP genotype and toxicity
Type: in vivo, human
Conditions: for OS HR (95% CI)‡ / PFS HR (95% CI) ‡: multivariable; for OS HR (95% CI)† / PFS HR (95% CI) †: univariate
Method: All patients underwent the treatment in salvage-line setting. […]
Genomic DNA was extracted from peripheral whole blood in patients of all cohorts using the QIAmp Kit (Qiagen, Valencia, Calif., USA) according to the manufacturer's protocol (www.qiagen.com). The candidate SNPs were genotyped using PCR-based direct DNA sequence analysis by ABI 3100A Capillary Genetic Analyzer and Sequencing Scanner v1.0 (Applied Biosystems). Amplification of extracted DNA was carried out using both forward and reverse primers for each gene polymorphism as shown in Table 1. […] The investigators analyzing SNPs were blinded to the clinical data of the study patients.
The primary endpoint in this study was progression-free survival (PFS), and the secondary endpoints were overall survival (OS) and disease control rate (DCR). PFS was calculated from the date of starting treatment to the first observation of disease progression or death from any cause. If a patient had no disease progression or death, PFS was censored at the date of last follow up. OS was calculated from the date of starting treatment until the date of death from any cause or the date of the last follow-up, at which point OS was censored. The disease control rate (DCR) was defined as the proportion of patients who achieved a stable disease (SD) or […] according to RECISTv1.1. Chi-square test was used to examine the difference in baseline patient characteristics among the three cohorts. Allelic distribution of all SNPs by ethnicity for deviation from Hardy-Weinberg equilibrium and the allelic frequencies of SNPs were tested using the Chi-square tests with one degree of freedom. The associations between candidate SNPs and disease control, and toxicities were examined using contingency tables and Fisher's exact test. The associations of SNPs with PFS and OS were analysed using Kaplan-Meier curves and the log-rank test. Because the true mode of inheritance of candidate SNPs was not established yet, a codominant or dominant genetic model if appropriate was considered.
All patients underwent the treatment in salvage-line setting. […] In all patients, adverse events were graded according to the Common Terminology Criteria for Adverse Events, version 4.0. […]
Genomic DNA was extracted from peripheral whole blood in patients of all cohorts using the QIAmp Kit (Qiagen, Valencia, Calif., USA) according to the manufacturer's protocol (www.qiagen.com). The candidate SNPs were tested using PCR-based direct DNA sequence analysis by ABI 3100A Capillary Genetic Analyzer and Sequencing Scanner v1.0 (Applied Biosystems). […] The investigators analyzing SNPs were blinded to the clinical data.
The primary endpoint in this study was progression-free survival (PFS), and the secondary endpoints were overall survival (OS) and disease control rate (DCR).

Trifluridine/tipiracil [TAS-102]
Disease Control Rate PD: 10 (71%) | Disease Control Rate SD: 4 (29%) | OS median, months (95% CI) (ATR rs2227928 A/A): 5.7 (2.7, 12.4) months | PFS median, months (95% CI) (ATR rs2227928 A/A): 2.1 (1.6, 3.4) months | OS median, months (95% CI) (ATR rs2227928 A/G): 8.1 (4.9, 15.6) months | PFS median, months (95% CI) (ATR rs2227928 A/G): 2.9 (1.6, 3.4) months | OS HR (95% CI)‡ (ATR rs2227928 A/G vs A/A): 0.68 (0.26, 1.74) | PFS HR (95% CI) ‡ (ATR rs2227928 A/G vs A/A): 0.82 (0.41, 1.63) | OS HR (95% CI)† (ATR rs2227928 A/G vs A/A): 0.71 (0.28, 1.78) | PFS HR (95% CI) † (ATR rs2227928 A/G vs A/A): 0.75 (0.38, 1.51) | OS median, months (95% CI) (ATR rs2227928 Any G): 8.3 (6.3, 15.6) months | PFS median, months (95% CI) (ATR rs2227928 Any G): 3.0 (2.1, 3.7) months | OS HR (95% CI)‡ (ATR rs2227928 Any G vs A/A): 0.50 (0.20, 1.27) | PFS HR (95% CI) ‡ (ATR rs2227928 Any G vs A/A): 0.67 (0.35, 1.29) | OS HR (95% CI)† (ATR rs2227928 Any G vs A/A): 0.57 (0.24, 1.40) | PFS HR (95% CI) † (ATR rs2227928 Any G vs A/A): 0.64 (0.33, 1.23) | PFS median, months (95% CI) (ATR rs2227928 G/G): 3.7 (2.1, 6.6) months | OS HR (95% CI)‡ (ATR rs2227928 G/G vs A/A): 0.18 (0.04, 0.93) | PFS HR (95% CI) ‡ (ATR rs2227928 G/G vs A/A): 0.43 (0.17, 1.08) | OS HR (95% CI)† (ATR rs2227928 G/G vs A/A): 0.28 (0.06, 1.31) | PFS HR (95% CI) † (ATR rs2227928 G/G vs A/A): 0.46 (0.19, 1.10) | OS median, months (95% CI) (BRCA1 rs16941 Any C): 8.3 (5.3, 14.8+) months | PFS median, months (95% CI) (BRCA1 rs16941 Any C): 3.0 (2.0, 4.2) months | OS HR (95% CI)‡ (BRCA1 rs16941 Any C vs T/T): 1.14 (0.46, 2.82) | PFS HR (95% CI) ‡ (BRCA1 rs16941 Any C vs T/T): 1.04 (0.54, 2.00) | OS HR (95% CI)† (BRCA1 rs16941 Any C vs T/T): 0.90 (0.38, 2.15) | PFS HR (95% CI) † (BRCA1 rs16941 Any C vs T/T): 0.87 (0.47, 1.64) | PFS median, months (95% CI) (BRCA1 rs16941 C/C): 2.7 (2.0, 4.2) months | OS HR (95% CI)‡ (BRCA1 rs16941 C/C vs T/T): 0.37 (0.05, 3.07) | PFS HR (95% CI) ‡ (BRCA1 rs16941 C/C vs T/T): 1.66 (0.58, 4.74) | OS HR (95% CI)† (BRCA1 rs16941 C/C vs T/T): 0.28 (0.04, 2.20) | PFS HR (95% CI) † (BRCA1 rs16941 C/C vs T/T): 1.06 (0.38, 2.90) | OS median, months (95% CI) (BRCA1 rs16941 T/C): 8.1 (3.4, 14.8+) months | PFS median, months (95% CI) (BRCA1 rs16941 T/C): 3.2 (1.8, 4.6) months | OS HR (95% CI)‡ (BRCA1 rs16941 T/C vs T/T): 1.36 (0.55, 3.40) | PFS HR (95% CI) ‡ (BRCA1 rs16941 T/C vs T/T): 0.94 (0.47, 1.88) | OS HR (95% CI)† (BRCA1 rs16941 T/C vs T/T): 1.13 (0.47, 2.74) | PFS HR (95% CI) † (BRCA1 rs16941 T/C vs T/T): 0.84 (0.43, 1.62) | OS median, months (95% CI) (BRCA1 rs16941 T/T): 6.3 (4.4, 15.6+) months | PFS median, months (95% CI) (BRCA1 rs799917 A/A): 2.7 (2.0, 4.2) months | OS HR (95% CI)‡ (BRCA1 rs799917 A/A vs G/G): 0.37 (0.05, 3.07) | PFS HR (95% CI) ‡ (BRCA1 rs799917 A/A vs G/G): 1.66 (0.58, 4.74) | OS HR (95% CI)† (BRCA1 rs799917 A/A vs G/G): 0.28 (0.04, 2.20) | PFS HR (95% CI) † (BRCA1 rs799917 A/A vs G/G): 1.06 (0.38, 2.90) | OS median, months (95% CI) (BRCA1 rs799917 Any A): 8.3 (5.3, 14.8+) months | PFS median, months (95% CI) (BRCA1 rs799917 Any A): 3.0 (2.0, 4.2) months | OS HR (95% CI)‡ (BRCA1 rs799917 Any A vs G/G): 1.14 (0.46, 2.82) | PFS HR (95% CI) ‡ (BRCA1 rs799917 Any A vs G/G): 1.04 (0.54, 2.00) | OS HR (95% CI)† (BRCA1 rs799917 Any A vs G/G): 0.90 (0.38, 2.15) | PFS HR (95% CI) † (BRCA1 rs799917 Any A vs G/G): 0.87 (0.47, 1.64) | OS median, months (95% CI) (BRCA1 rs799917 G/A): 8.1 (3.4, 14.8+) months | PFS median, months (95% CI) (BRCA1 rs799917 G/A): 3.2 (1.8, 4.6) months | OS HR (95% CI)‡ (BRCA1 rs799917 G/A vs G/G): 1.36 (0.55, 3.40) | PFS HR (95% CI) ‡ (BRCA1 rs799917 G/A vs G/G): 0.94 (0.47, 1.88) | OS HR (95% CI)† (BRCA1 rs799917 G/A vs G/G): 1.13 (0.47, 2.74) | PFS HR (95% CI) † (BRCA1 rs799917 G/A vs G/G): 0.84 (0.43, 1.62) | OS median, months (95% CI) (BRCA1 rs799917 G/G): 6.3 (4.4, 15.6+) months | OS median, months (95% CI) (BRCA2 rs144848 A/A): 8.3 (5.4, 12.4) months | PFS median, months (95% CI) (BRCA2 rs144848 A/A): 2.7 (2.0, 3.4) months | PFS median, months (95% CI) (BRCA2 rs144848 A/C): 3.5 (1.5, 4.9) months | OS HR (95% CI)‡ (BRCA2 rs144848 A/C vs A/A): 0.97 (0.34, 2.76) | PFS HR (95% CI) ‡ (BRCA2 rs144848 A/C vs A/A): 0.82 (0.39, 1.72) | OS HR (95% CI)† (BRCA2 rs144848 A/C vs A/A): 0.91 (0.33, 2.57) | PFS HR (95% CI) † (BRCA2 rs144848 A/C vs A/A): 0.76 (0.37, 1.56) | OS median, months (95% CI) (BRCA2 rs144848 Any C): 8.1 (2.8, 15.6+) months | PFS median, months (95% CI) (BRCA2 rs144848 Any C): 3.3 (1.6, 4.6) months | OS HR (95% CI)‡ (BRCA2 rs144848 Any C vs A/A): 1.14 (0.46, 2.79) | PFS HR (95% CI) ‡ (BRCA2 rs144848 Any C vs A/A): 0.92 (0.48, 1.78) | OS HR (95% CI)† (BRCA2 rs144848 Any C vs A/A): 1.07 (0.44, 2.58) | PFS HR (95% CI) † (BRCA2 rs144848 Any C vs A/A): 0.82 (0.43, 1.54) | OS median, months (95% CI) (BRCA2 rs144848 C/C): 8.1 (2.7, 8.1+) months | PFS median, months (95% CI) (BRCA2 rs144848 C/C): 2.7 (0.9, 6.0+) months | OS HR (95% CI)‡ (BRCA2 rs144848 C/C vs A/A): 1.62 (0.44, 6.02) | PFS HR (95% CI) ‡ (BRCA2 rs144848 C/C vs A/A): 1.28 (0.47, 3.50) | OS HR (95% CI)† (BRCA2 rs144848 C/C vs A/A): 1.48 (0.41, 5.34) | PFS HR (95% CI) † (BRCA2 rs144848 C/C vs A/A): 0.99 (0.38, 2.59) | OS median, months (95% CI) (CHEK2 rs22236142 Any C): 8.3 (5.4, 15.6+) months | PFS median, months (95% CI) (CHEK2 rs22236142 Any C): 2.6 (2.1, 3.4) months | OS HR (95% CI)‡ (CHEK2 rs22236142 Any C vs G/G): 0.66 (0.26, 1.65) | PFS HR (95% CI) ‡ (CHEK2 rs22236142 Any C vs G/G): 1.15 (0.59, 2.22) | OS HR (95% CI)† (CHEK2 rs22236142 Any C vs G/G): 0.84 (0.35, 2.00) | PFS HR (95% CI) † (CHEK2 rs22236142 Any C vs G/G): 1.33 (0.70, 2.50) | OS median, months (95% CI) (CHEK2 rs22236142 C/C): 7.5 (3.3, 15.6+) months | PFS median, months (95% CI) (CHEK2 rs22236142 C/C): 2.7 (1.6, 4.4) months | OS HR (95% CI)‡ (CHEK2 rs22236142 C/C vs G/G): 0.88 (0.28, 2.77) | PFS HR (95% CI) ‡ (CHEK2 rs22236142 C/C vs G/G): 1.18 (0.50, 2.78) | OS HR (95% CI)† (CHEK2 rs22236142 C/C vs G/G): 0.93 (0.31, 2.81) | PFS HR (95% CI) † (CHEK2 rs22236142 C/C vs G/G): 1.15 (0.49, 2.74) | OS median, months (95% CI) (CHEK2 rs22236142 G/C): 8.3 (4.9, 12.4+) months | PFS median, months (95% CI) (CHEK2 rs22236142 G/C): 2.5 (1.8, 3.5) months
